Measured values taken from patent US7084158B2, “Substituted propargylamines” (Bayer Cropscience S.A., priority 2001, dated 2006).

Tests used:
Type in all cases: in vivo
Design in all cases: key: compounds were considered to be active when, at a concentration of 500 ppm or less, they had an activity on the harmful organisms of 50% or more
Heliothis virescens = experiment: Example B: tobacco budworm eggs on filter paper/insect diet, mortality; details: 500 ppm or less; 24-hour-old eggs dipped, diet treated; after 6 days
Aedes aegypti = experiment: Example AG: microtiter plate, yellow fever mosquito larvicidal activity; details: 500 ppm or less, after 3 days
[1] = system: Diabrotica undecimpunctata; experiment: Example C: corn rootworm eggs with maize corn, mortality; details: 500 ppm or less; 4-5-day-old eggs; after 6 days

| SMILES | effect on the eggs and hatched larvae (mortality) (Heliothis virescens) | larvicidal activity (Aedes aegypti) | effect on the eggs and hatched larvae (mortality) [1] |
| --- | --- | --- | --- |
| CC1CCN(CC#Cc2ccc(Br)s2)CC1 [Example 215] | active | active |  |
| CCc1ccc(C#CCN2CCC(C)CC2)cc1F [Example 254] | active | active |  |
| CC1CCN(CC#Cc2ccc(-c3cccc(Cl)c3)s2)CC1 [Example 247] | active |  |  |
| CC1(C)CCCN(CC#Cc2cc(C(F)(F)F)cc(C(F)(F)F)c2)C1.Cl [Example 1001] |  |  | active |
| CCS(=O)(=O)O.Cc1cc(C(F)(F)F)cc(C#CCN2CCC(C)CC2)n1 [Example 1064] |  | active | active |
| Cc1ccc(C#CCN2CCC(C)CC2)s1 [Example 293] |  | active |  |
| CC1CCN(CC#Cc2cc(Cl)cc(Cl)c2)CC1.Cl [Example 1011] | active |  |  |
| CC1CCN(CC#Cc2ccc(-c3cccc(C(F)(F)F)c3)cc2)CC1 [Example 182] | active |  |  |
| CCOC(=O)c1cccc(-c2ccc(C#CCN3CCC(C)CC3)cc2)c1 [Example 178] | active |  |  |
| CC1CCN(CC#Cc2ccc(-c3ccc(Cl)cc3Cl)cc2)CC1 [Example 176] | active |  |  |
| Cc1cc(C#CCN2CCC(C)CC2)sc1-c1ccc(Cl)cc1 [Example 239] | active |  |  |
| CC1CCN(CC#Cc2cccc(-c3ccc(C(F)(F)F)cc3)c2)CC1 [Example 217] | active |  |  |
| CC1CCN(CC#Cc2ccc(F)c(C(F)(F)F)c2)CC1 [Example 285] | active |  |  |
| CC1CCN(CC#Cc2ccc(C=NOCc3ccc(Cl)cc3Cl)s2)CC1 [Example 296] | active |  |  |
| CC1CCN(CC#Cc2cccc(-c3ccc(C#N)cc3)c2)CC1 [Example 226] | active |  |  |
| CC1CCN(CC#Cc2ccc(-c3ccc(C(F)(F)F)cc3)s2)CC1 [Example 242] |  | active |  |
| CC1CCN(CC#Cc2ccc(-c3cc(C(F)(F)F)ccc3Cl)cc2)CC1 [Example 171] | active |  |  |
| FC(F)(F)c1cccc(C#CCN2CCCC(C(F)(F)F)C2)c1 (centres unmarked) [Example 297] |  |  | active |
| CC1CCN(CC#Cc2cccc(-c3cccc(Cl)c3)c2)CC1 [Example 219] |  | active |  |
| Cc1cc(C#CCN2CCC(C)CC2)sc1Br [Example 213] |  | active |  |
| COc1ccc(-c2ccc(C#CCN3CCC(C)CC3)cc2)cc1 [Example 181] | active |  |  |
| CC1CCN(CC#Cc2ccc(-c3ccccc3Cl)cc2)CC1 [Example 174] | active |  |  |

| SMILES | effect on the eggs and hatched larvae (mortality) (Heliothis virescens) | larvicidal activity (Aedes aegypti) | effect on the eggs and hatched larvae (mortality) [1] |
| --- | --- | --- | --- |
| Cc1ccc(-c2ccc(C#CCN3CCC(C)CC3)s2)cc1 [Example 241] | active |  |  |
| CC1CCN(CC#Cc2ccc(-c3cc(Cl)cc(Cl)c3)s2)CC1 [Example 273] | active |  |  |
| CC(=O)c1ccc(C#CCN2CCC(C)CC2)s1 [Example 214] | active |  |  |
| Cc1ccc(-c2ccc(C#CCN3CCC(C)CC3)cc2F)cc1 [Example 248] |  | active |  |
| CC1CCN(CC#Cc2ccc(-c3cc(C(F)(F)F)cc(C(F)(F)F)c3)s2)CC1 [Example 271] | active |  |  |
| CC1CCN(CC#Cc2ccc(-c3ccc(F)c(Cl)c3)c(F)c2)CC1 [Example 249] |  | active |  |
| CC1CCN(CC#Cc2ccc(C(F)(F)F)cn2)CC1 [Example 58] |  |  | active |
| CC1CCN(CC#Cc2ccc(Cl)s2)CC1 [Example 216] | active | active |  |
| Cc1cc(C)nc(C#CCN2CCC(C)CC2)c1 [Example 294] |  | active |  |
| CC1CCN(CC#Cc2cccc(-c3ccc(Cl)cc3)c2)CC1 [Example 222] | active |  |  |
| Cc1ccc(C#CCN2CCC(C)CC2)cc1C(F)(F)F [Example 284] | active |  |  |
| CC1CCN(CC#Cc2ccc(F)c(Cl)c2)CC1 [Example 124] | active |  |  |
| CC1CCN(CC#Cc2cccc(-c3cccc4ccccc34)c2)CC1 [Example 221] | active |  |  |
| Cc1cc(Cl)ccc1C#CCN1CCC(C)CC1 [Example 100] | active |  |  |
| CC1CCN(CC#Cc2ccc(Br)c(F)c2)CC1 [Example 207] | active |  | active |
| CC1CCN(CC#Cc2cccc(-c3ccc(Cl)s3)c2)CC1 [Example 225] | active |  |  |
| FC(F)(F)c1cc(C#CCN2CCC(C(F)(F)F)CC2)cc(C(F)(F)F)c1 [Example 205] |  |  | active |
| Cc1cc(C#CCN2CCC(C)CC2)sc1-c1ccc(F)cc1 [Example 232] | active |  |  |
| CC1CCN(CC#Cc2ccc(-c3cccc(C(F)(F)F)c3)s2)CC1 [Example 229] | active |  |  |
| CC1CCN(CC#Cc2ccc(-c3cccc(Cl)c3)cc2)CC1 [Example 173] | active |  |  |
| CC1CCN(CC#Cc2ccc(Cl)cc2Cl)CC1.Cl [Example 1000] | active |  |  |
| CC1CCN(CC#Cc2cccc(C(F)(F)F)c2)CC1 [Example 24] | active |  |  |

| SMILES | effect on the eggs and hatched larvae (mortality) (Heliothis virescens) | larvicidal activity (Aedes aegypti) | effect on the eggs and hatched larvae (mortality) [1] |
| --- | --- | --- | --- |
| CC1CCN(CC#Cc2ccc(-c3ccccc3)cc2)CC1 [Example 119] | active |  |  |
| COc1ccc(-c2ccc(C#CCN3CCC(C)CC3)cc2F)cc1 [Example 231] |  |  | active |
| FC(F)(F)c1cc(C#CCN2CCCC(C(F)(F)F)C2)nc(C(F)(F)F)c1 (centres unmarked) [Example 282] |  |  | active |
| CC1CCN(CC#Cc2ccc(-c3ccc(OC(F)(F)F)cc3)s2)CC1 [Example 244] | active | active |  |
| FC(F)(F)c1cc(C#CCN2CCCC(C(F)(F)F)C2)cc(C(F)(F)F)c1 (centres unmarked) [Example 281] |  |  | active |
| CC1CCN(CC#Cc2c(Cl)cc(C(F)(F)F)cc2Cl)CC1 [Example 295] | active |  | active |
| CC1CCN(CC#Cc2cccc(-c3cnc(Cl)c(Cl)c3)c2)CC1 [Example 224] | active |  |  |
| CC1CCN(CC#Cc2ccc(-c3ccc(C(F)(F)F)cc3)cc2)CC1 [Example 172] | active |  |  |
| CC1CCN(CC#Cc2ccnc(C(F)(F)F)n2)CC1 [Example 167] | active |  |  |
| Cc1c(Cl)cccc1C#CCN1CCC(C)CC1 [Example 97] | active |  |  |
| CC1CCN(CC#Cc2ccc(-c3cc(F)cc([N+](=O)[O-])c3)cc2)CC1 [Example 177] | active |  |  |
| CC1CCN(CC#Cc2ccc(C=NOCc3ccccc3)s2)CC1 [Example 292] | active | active |  |
| CC1CCN(CC#Cc2ccc(-c3ccccc3)s2)CC1 [Example 240] | active |  |  |
| CC1CCN(CC#Cc2cc(C(F)(F)F)cc(C(F)(F)F)c2)CC1.O=C(O)/C=C\C(=O)O [Example 1056] | active |  | active |
| CC1CCN(CC#Cc2cc(Cl)c(OC(F)(F)C(F)Cl)c(Cl)c2)CC1 (centres unmarked) [Example 283] | active |  |  |
| Cl.FC(F)(F)c1cc(C#CCN2CCC(C(F)(F)F)CC2)nc(C(F)(F)F)c1 [Example 1050] |  |  | active |
| Cc1ccc(-c2sc(C#CCN3CCC(C)CC3)cc2C)cc1 [Example 236] | active |  |  |
| Cc1cccc(-c2ccc(C#CCN3CCC(C)CC3)s2)c1 [Example 246] | active |  |  |
| CC1CCN(CC#Cc2cccc(-c3cc(C(F)(F)F)cc(C(F)(F)F)c3)c2)CC1 [Example 218] |  | active |  |
| CC1CCCN(CC#Cc2cc(C(F)(F)F)cc(C(F)(F)F)c2)C1 (centres unmarked) [Example 31] |  |  | active |
| Cc1cc(C)nc(C#CCN2CCC(C)CC2)c1 [Example 201] | active |  | active |
| CC1CCN(CC#Cc2ccc(C#N)c(Cl)c2)CC1 [Example 289] | active | active |  |
